Like-named read-outs stand apart in the source and are kept apart here.
Assays:
MraY/MurG couple = test: Coupled assay of MraY and MurG using HP20ss beads; type: biochemical, E. coli; conditions: titration of the MraY/MurG couple, 0.5 mg/mL protein at 10 min time (FIG. 5, Panel B)
Procedure: The MraY/MurG coupled assay reaction procedure was identical to that described above for the assay of MraY. However, quantitation of the coupled system was performed by monitoring the incorporation of radiolabeled MurG co-substrate UDP-N-[1-^14C]acetyl-glucosamine into the lipophilic product Lipid II. Accordingly, this assay mixture was modified to contain 100 mM Tris, pH 7.5, 30 mM MgCl2, 0.15% Triton X-100, 40 μM decaprenol phosphate, 100 μM UDP-MurNAc-pentapeptide, 100 ug/ml phosphatidyl glycerol, and 20 μM, 0.1 μCi UDP-N-[1-^14C]acetyl-glucosamine and typically 0.5 mg/mL of E. coli cell membranes in a final volume of 50 μL. All other procedures, times and temperatures were identical to those described for the MraY assay.

MraY = molecular target: T1, MraY (Escherichia coli, UniProt P0A6W3); test: Assay of MraY using HP20ss hydrophobic beads; type: biochemical, E. coli
T1 construct: MraY activity measured in membranes prepared from wild-type E. coli; endogenous in cells
T1 sequence (P0A6W3 1-360): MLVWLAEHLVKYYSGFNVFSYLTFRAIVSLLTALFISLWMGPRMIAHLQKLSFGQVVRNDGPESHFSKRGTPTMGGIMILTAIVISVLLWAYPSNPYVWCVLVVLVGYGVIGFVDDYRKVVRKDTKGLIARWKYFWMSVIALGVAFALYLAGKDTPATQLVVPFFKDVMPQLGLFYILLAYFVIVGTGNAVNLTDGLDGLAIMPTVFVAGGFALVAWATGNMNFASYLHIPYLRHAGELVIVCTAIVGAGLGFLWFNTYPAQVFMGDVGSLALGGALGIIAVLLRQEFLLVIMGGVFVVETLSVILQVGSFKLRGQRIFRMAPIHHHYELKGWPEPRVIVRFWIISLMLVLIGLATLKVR
Procedure: The reaction catalyzed transfer and use of the radiotracer are shown in FIG. 2, Panel A. The general course of manipulations are diagramed in FIG. 2, Panel D and described in the text. The reaction mixture for the MraY assay included 100 mM Tris, pH 7.5, 30 mM MgCl2, 0.15% Triton X-100, 100 μg/ml Phosphatidyl Glycerol, 40 μM decaprenol phosphate, 14 μM UDP-MurNAC-[^14C]pentapeptide (prepared as described above) and typically 0.5 mg/mL of E. coli cell membranes in a final volume of 50 μL. The phosphatidyl glycerol and decaprenol phosphate, which are supplied in organic solvent, were dried in the reaction tube before the addition of the other components.
The HP20ss resin used to isolate the Lipid I product from the above reaction mixture was equilibrated before use. Briefly, the dry resin was mixed thoroughly with excess methanol in a beaker and allowed to settle for 45 min. […]
For assays whereby the reaction is analyzed at various times, a larger reaction volume was prepared (50 μL is typically appropriate for each time point). […] The filterplate was then quantitated by liquid scintillation spectrometry with a TOPCOUNT (PERKIN ELMER LIFE SCIENCES, Downers Grove, Ill.) using 200 μL of scintillation cocktail (MICROSCINT 40, PERKIN ELMER LIFE SCIENCES, Downers Grove, Ill.) per well.

| Substance | IC50 (MraY/MurG couple) | IC50 (MraY/MurG couple; listed as ramoplainin) [µg/mL] | IC50 (MraY; membranes from wild-type E. coli, bead format (text to FIG. 5, Panel A)) | IC50 (MraY; titration of the MraY assay, 0.5 mg/mL protein at 10 min time (FIG. 5, Panel A), read-out: IC50) [nM] |
| --- | --- | --- | --- | --- |
| ramoplanin | approximately 17 μg/mL | 17 | – | – |
| tunicamycin | – | – | approximately 1 μg/mL | 1100 |
